Data on 15 molecules can be found in patent US20250230193A1, “CYCLIC COMPOUND HAVING SELECTIVE KRAS INHIBITORY EFFECT ON HRAS AND NRAS” (CHUGAI SEIYAKU KABUSHIKI KAISHA, priority 2022, published 2025).

Assay [1] deals with GDP-bound NRAS wild-type protein (Homo sapiens, UniProt P01111). Put plainly: Binding to NRAS by surface plasmon resonance (SPR), Single Cycle Kinetics. The following applies: KD ratio, GDP-bound NRAS wild-type vs GDP-bound KRAS wild-type, SPR.
Assay [2] concerns the target GDP-bound HRAS wild-type protein (Homo sapiens, UniProt P01112). Nature of the assay: Binding to HRAS by surface plasmon resonance (SPR), Single Cycle Kinetics. The following applies: KD ratio, GDP-bound HRAS wild-type vs GDP-bound KRAS wild-type, SPR.

Structures are written as SMILES.

GDP-bound NRAS wild-type protein, sequence (P01111 whole entry): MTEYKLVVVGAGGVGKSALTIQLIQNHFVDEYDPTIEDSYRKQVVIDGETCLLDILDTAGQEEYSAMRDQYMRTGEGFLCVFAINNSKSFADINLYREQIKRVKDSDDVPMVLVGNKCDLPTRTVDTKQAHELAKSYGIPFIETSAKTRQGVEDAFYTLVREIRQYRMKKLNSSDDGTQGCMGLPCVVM
GDP-bound HRAS wild-type protein, sequence (P01112 whole entry): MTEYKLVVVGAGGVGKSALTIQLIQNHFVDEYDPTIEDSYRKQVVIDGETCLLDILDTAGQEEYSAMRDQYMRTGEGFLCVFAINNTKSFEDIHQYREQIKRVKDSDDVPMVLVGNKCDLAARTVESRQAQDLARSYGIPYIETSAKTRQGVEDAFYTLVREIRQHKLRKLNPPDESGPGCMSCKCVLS

`CCO[C@@H]1C[C@H]2C(=O)NC3(CCC3)C(=O)N(C)[C@@H](C3CCCC3)C(=O)N(C)[C@H](C(=O)N3CCOCC3)CC(=O)N(C)[C@@H](Cc3ccc(C#N)cc3)C(=O)N[C@@H]([C@@H](C)CC)C(=O)N(C)CC(=O)N(C)[C@H]3CCCCCN(C3=O)[C@@H](Cc3ccc(C(F)(F)F)cc3)C(=O)N(C)CC(=O)N[C@@H](CCc3cc(F)c(C(F)(F)F)c(F)c3)C(=O)N2C1` [PP1167]: in assay [1], the “NRAS/KRAS (ratio of KD value with respect to NRAS to KD value with respect to KRAS)” value was “B (a compound having 3 or more and less than 10 is denoted as B)”. Further, the “HRAS/KRAS (ratio of KD value with respect to HRAS to KD value with respect to KRAS)” value in assay [2] was “B (a compound having 3 or more and less than 10 is denoted as B)”.

`CCO[C@@H]1C[C@H]2C(=O)NC3(CCC3)C(=O)N(C)[C@@H](C3CCCC3)C(=O)N(C)[C@H](C(=O)N3CCOCC3)CC(=O)N(C)[C@@H](Cc3ccc(Cl)c(Cl)c3)C(=O)N[C@@H]([C@@H](C)CC)C(=O)N(C)CC(=O)N(C)[C@H]3CCCCCN(C3=O)[C@@H](Cc3ccc(C(F)(F)F)cc3)C(=O)N(C)CC(=O)N[C@@H](CCc3cc(F)c(C(F)(F)F)c(F)c3)C(=O)N2C1` [PP1168]: in assay [1], the “NRAS/KRAS (ratio of KD value with respect to NRAS to KD value with respect to KRAS)” value is “A (a compound having 10 or more and less than 20 is denoted as A)”. Moreover, the “HRAS/KRAS (ratio of KD value with respect to HRAS to KD value with respect to KRAS)” value in assay [2] was “A (a compound having 10 or more and less than 20 is denoted as A)”.

As to `CCO[C@@H]1C[C@H]2C(=O)NC3(CCC3)C(=O)N(C)[C@@H](C3CCCC3)C(=O)N(C)[C@H](C(=O)N(C)C)CC(=O)N(C)[C@@H](Cc3cccs3)C(=O)N[C@@H]([C@@H](C)CC)C(=O)N(C)CC(=O)N(C)[C@H]3CCCCCN(C3=O)[C@@H](Cc3ccc(C(F)(F)F)cc3)C(=O)N(C)CC(=O)N[C@@H](CCc3cc(F)c(C(F)(F)F)c(F)c3)C(=O)N2C1` [PP1169], in assay [1], the “NRAS/KRAS (ratio of KD value with respect to NRAS to KD value with respect to KRAS)” value was “B (a compound having 3 or more and less than 10 is denoted as B)”. Also, the “HRAS/KRAS (ratio of KD value with respect to HRAS to KD value with respect to KRAS)” value in assay [2] is “B (a compound having 3 or more and less than 10 is denoted as B)”.

`CCO[C@@H]1C[C@H]2C(=O)NC3(CCC3)C(=O)N(C)[C@@H](C3CCCC3)C(=O)N(C)[C@H](C(=O)N(C)C)CC(=O)N(C)[C@@H](Cc3ccccc3C#N)C(=O)N[C@@H]([C@@H](C)CC)C(=O)N(C)CC(=O)N(C)[C@H]3CCCCCN(C3=O)[C@@H](Cc3ccc(C(F)(F)F)cc3)C(=O)N(C)CC(=O)N[C@@H](CCc3cc(F)c(C(F)(F)F)c(F)c3)C(=O)N2C1` [PP1171]: in assay [1], the “NRAS/KRAS (ratio of KD value with respect to NRAS to KD value with respect to KRAS)” value is “B (a compound having 3 or more and less than 10 is denoted as B)”. For the same molecule, the “HRAS/KRAS (ratio of KD value with respect to HRAS to KD value with respect to KRAS)” value in assay [2] was “B (a compound having 3 or more and less than 10 is denoted as B)”.

With `CCO[C@@H]1C[C@H]2C(=O)NC3(CCC3)C(=O)N(C)[C@@H](C3CCCC3)C(=O)N(C)[C@H](C(=O)N(C)C)CC(=O)N(C)[C@@H](Cc3cccc(C#N)c3)C(=O)N[C@@H]([C@@H](C)CC)C(=O)N(C)CC(=O)N(C)[C@H]3CCCCCN(C3=O)[C@@H](Cc3ccc(C(F)(F)F)cc3)C(=O)N(C)CC(=O)N[C@@H](CCc3cc(F)c(C(F)(F)F)c(F)c3)C(=O)N2C1` [PP1172], the “NRAS/KRAS (ratio of KD value with respect to NRAS to KD value with respect to KRAS)” value in assay [1] was “B (a compound having 3 or more and less than 10 is denoted as B)”. Besides, the “HRAS/KRAS (ratio of KD value with respect to HRAS to KD value with respect to KRAS)” value in assay [2] is “B (a compound having 3 or more and less than 10 is denoted as B)”.

Regarding `CCO[C@@H]1C[C@H]2C(=O)NC3(CCC3)C(=O)N(C)[C@@H](C3CCCC3)C(=O)N(C)[C@H](C(=O)N(C)C)CC(=O)N(C)[C@@H](Cc3ccc(C#N)cc3)C(=O)N[C@@H]([C@@H](C)CC)C(=O)N(C)CC(=O)N(C)[C@H]3CCCCCN(C3=O)[C@@H](Cc3ccc(C(F)(F)F)cc3)C(=O)N(C)CC(=O)N[C@@H](CCc3cc(F)c(C(F)(F)F)c(F)c3)C(=O)N2C1` [PP1173], in assay [1], the “NRAS/KRAS (ratio of KD value with respect to NRAS to KD value with respect to KRAS)” value is “B (a compound having 3 or more and less than 10 is denoted as B)”. In addition, the “HRAS/KRAS (ratio of KD value with respect to HRAS to KD value with respect to KRAS)” value in assay [2] is “B (a compound having 3 or more and less than 10 is denoted as B)”.

`CCO[C@@H]1C[C@H]2C(=O)NC3(CCC3)C(=O)N(C)[C@@H](C3CCCC3)C(=O)N(C)[C@H](C(=O)N(C)C)CC(=O)N(C)[C@@H](Cc3ccc(Cl)c(Cl)c3)C(=O)N[C@@H]([C@@H](C)CC)C(=O)N(C)CC(=O)N(C)[C@H]3CCCCCN(C3=O)[C@@H](Cc3ccc(C(F)(F)F)cc3)C(=O)N(C)CC(=O)N[C@@H](CCc3cc(F)c(C(F)(F)F)c(F)c3)C(=O)N2C1` [PP1174]: the “NRAS/KRAS (ratio of KD value with respect to NRAS to KD value with respect to KRAS)” value in assay [1] is “B (a compound having 3 or more and less than 10 is denoted as B)”. Besides, in assay [2], the “HRAS/KRAS (ratio of KD value with respect to HRAS to KD value with respect to KRAS)” value was “B (a compound having 3 or more and less than 10 is denoted as B)”.

On to `CCO[C@@H]1C[C@H]2C(=O)NC3(CCC3)C(=O)N(C)[C@@H](C3CCCC3)C(=O)N(C)[C@H](C(=O)N3CCOCC3)CC(=O)N(C)[C@@H](C)C(=O)N[C@@H]([C@@H](C)CC)C(=O)N(C)CC(=O)N(C)[C@H]3CCCCCN(C3=O)[C@@H](Cc3ccc(F)cc3)C(=O)N(C)CC(=O)N[C@@H](CCc3cc(F)c(C(F)(F)F)c(F)c3)C(=O)N2C1` [PP1175], for which the “NRAS/KRAS (ratio of KD value with respect to NRAS to KD value with respect to KRAS)” value in assay [1] is “B (a compound having 3 or more and less than 10 is denoted as B)”. Also, in assay [2], the “HRAS/KRAS (ratio of KD value with respect to HRAS to KD value with respect to KRAS)” value was “B (a compound having 3 or more and less than 10 is denoted as B)”.

For the molecule `CCO[C@@H]1C[C@H]2C(=O)NC3(CCC3)C(=O)N(C)[C@@H](C3CCCC3)C(=O)N(C)[C@H](C(=O)N3CCOCC3)CC(=O)N(C)[C@@H](CC)C(=O)N[C@@H]([C@@H](C)CC)C(=O)N(C)CC(=O)N(C)[C@H]3CCCCCN(C3=O)[C@@H](Cc3ccc(F)cc3)C(=O)N(C)CC(=O)N[C@@H](CCc3cc(F)c(C(F)(F)F)c(F)c3)C(=O)N2C1` [PP1176], the “NRAS/KRAS (ratio of KD value with respect to NRAS to KD value with respect to KRAS)” value in assay [1] is “B (a compound having 3 or more and less than 10 is denoted as B)”. For the same molecule, the “HRAS/KRAS (ratio of KD value with respect to HRAS to KD value with respect to KRAS)” value in assay [2] was “B (a compound having 3 or more and less than 10 is denoted as B)”.

Consider `CCO[C@@H]1C[C@H]2C(=O)NC3(CCC3)C(=O)N(C)[C@@H](C3CCCC3)C(=O)N(C)[C@H](C(=O)N3CCOCC3)CC(=O)N(C)[C@@H](CC(F)F)C(=O)N[C@@H]([C@@H](C)CC)C(=O)N(C)CC(=O)N(C)[C@H]3CCCCCN(C3=O)[C@@H](Cc3ccc(F)cc3)C(=O)N(C)CC(=O)N[C@@H](CCc3cc(F)c(C(F)(F)F)c(F)c3)C(=O)N2C1` [PP1177], for which, in assay [1], the “NRAS/KRAS (ratio of KD value with respect to NRAS to KD value with respect to KRAS)” value is “B (a compound having 3 or more and less than 10 is denoted as B)”. Also, the “HRAS/KRAS (ratio of KD value with respect to HRAS to KD value with respect to KRAS)” value in assay [2] was “B (a compound having 3 or more and less than 10 is denoted as B)”.

With `CCO[C@@H]1C[C@H]2C(=O)NC3(CCC3)C(=O)N(C)[C@@H](C3CCCC3)C(=O)N(C)[C@H](C(=O)N3CCOCC3)CC(=O)N(C)[C@@H](CC3CC3)C(=O)N[C@@H]([C@@H](C)CC)C(=O)N(C)CC(=O)N(C)[C@H]3CCCCCN(C3=O)[C@@H](Cc3ccc(F)cc3)C(=O)N(C)CC(=O)N[C@@H](CCc3cc(F)c(C(F)(F)F)c(F)c3)C(=O)N2C1` [PP1178], the “NRAS/KRAS (ratio of KD value with respect to NRAS to KD value with respect to KRAS)” value in assay [1] is “B (a compound having 3 or more and less than 10 is denoted as B)”. The “HRAS/KRAS (ratio of KD value with respect to HRAS to KD value with respect to KRAS)” value in assay [2] is “B (a compound having 3 or more and less than 10 is denoted as B)”.

As to `CCO[C@@H]1C[C@H]2C(=O)NC3(CCC3)C(=O)N(C)[C@@H](C3CCCC3)C(=O)N(C)[C@H](C(=O)N3CCOCC3)CC(=O)N(C)[C@@H](COC)C(=O)N[C@@H]([C@@H](C)CC)C(=O)N(C)CC(=O)N(C)[C@H]3CCCCCN(C3=O)[C@@H](Cc3ccc(F)cc3)C(=O)N(C)CC(=O)N[C@@H](CCc3cc(F)c(C(F)(F)F)c(F)c3)C(=O)N2C1` [PP1179], the “NRAS/KRAS (ratio of KD value with respect to NRAS to KD value with respect to KRAS)” value in assay [1] is “B (a compound having 3 or more and less than 10 is denoted as B)”. Besides, the “HRAS/KRAS (ratio of KD value with respect to HRAS to KD value with respect to KRAS)” value in assay [2] was “B (a compound having 3 or more and less than 10 is denoted as B)”.

Regarding `CCO[C@@H]1C[C@H]2C(=O)NC3(CCC3)C(=O)N(C)[C@@H](C3CCCC3)C(=O)N(C)[C@H](C(=O)N3CCOCC3)CC(=O)N(C)[C@@H](CCOC)C(=O)N[C@@H]([C@@H](C)CC)C(=O)N(C)CC(=O)N(C)[C@H]3CCCCCN(C3=O)[C@@H](Cc3ccc(F)cc3)C(=O)N(C)CC(=O)N[C@@H](CCc3cc(F)c(C(F)(F)F)c(F)c3)C(=O)N2C1` [PP1180], in assay [1], the “NRAS/KRAS (ratio of KD value with respect to NRAS to KD value with respect to KRAS)” value is “B (a compound having 3 or more and less than 10 is denoted as B)”. In assay [2], the “HRAS/KRAS (ratio of KD value with respect to HRAS to KD value with respect to KRAS)” value was “B (a compound having 3 or more and less than 10 is denoted as B)”.

As for `CCO[C@@H]1C[C@H]2C(=O)NC3(CCC3)C(=O)N(C)[C@@H](C3CCCC3)C(=O)N(C)[C@H](C(=O)N3CCOCC3)CC(=O)N(C)[C@@H](Cc3cccs3)C(=O)N[C@@H]([C@@H](C)CC)C(=O)N(C)CC(=O)N(C)[C@H]3CCCCCN(C3=O)[C@@H](Cc3ccc(F)cc3)C(=O)N(C)CC(=O)N[C@@H](CCc3cc(F)c(C(F)(F)F)c(F)c3)C(=O)N2C1` [PP1183], the “NRAS/KRAS (ratio of KD value with respect to NRAS to KD value with respect to KRAS)” value in assay [1] is “B (a compound having 3 or more and less than 10 is denoted as B)”. Further, the “HRAS/KRAS (ratio of KD value with respect to HRAS to KD value with respect to KRAS)” value in assay [2] is “B (a compound having 3 or more and less than 10 is denoted as B)”.

Turning to `CCO[C@@H]1C[C@H]2C(=O)NC3(CCC3)C(=O)N(C)[C@@H](C3CCCC3)C(=O)N(C)[C@H](C(=O)N3CCOCC3)CC(=O)N(C)[C@@H](Cc3ccsc3)C(=O)N[C@@H]([C@@H](C)CC)C(=O)N(C)CC(=O)N(C)[C@H]3CCCCCN(C3=O)[C@@H](Cc3ccc(F)cc3)C(=O)N(C)CC(=O)N[C@@H](CCc3cc(F)c(C(F)(F)F)c(F)c3)C(=O)N2C1` [PP1184], in assay [1], the “NRAS/KRAS (ratio of KD value with respect to NRAS to KD value with respect to KRAS)” value is “B (a compound having 3 or more and less than 10 is denoted as B)”. In addition, the “HRAS/KRAS (ratio of KD value with respect to HRAS to KD value with respect to KRAS)” value in assay [2] is “B (a compound having 3 or more and less than 10 is denoted as B)”.
